Results: ChEMBL document CHEMBL1156082, “Novel orally active morpholine N-arylsulfonamides gamma-secretase inhibitors with low CYP 3A4 liability” (Bioorg Med Chem Lett, 2009)

Assays:
[1] = AUC (0 to 6 hrs) in rat blood at 10 mg/kg, po; format: ADME, organism-based; design: time < 6 hr, dose 10 mg/kg, route oral
[2] = Inhibition of gamma-secretase assessed as reduction in membrane amyloid beta40 production
[3] = Inhibition of gamma-secretase assessed as reduction in cell amyloid beta40 production
Mus musculus [4] = experiment: Reduction of amyloid beta40 level in TgCRND8 mouse plasma at 30 mg/kg, sc after 3 hrs; format: functional; design: scale not given: the % may be the effect or the level left; details: route subcutaneous
[5] = Drug level in rat brain at 10 mg/kg, po; format: ADME, organism-based; design: dose 10 mg/kg, route oral
Mus musculus [6] = experiment: Reduction of amyloid beta40 level in TgCRND8 mouse plasma drug dosed po once daily for 5 days; format: functional; details: 120 h
Mus musculus [7] = experiment: Reduction of amyloid beta40 level in TgCRND8 mouse brain drug dosed po once daily for 5 days; format: functional; details: 120 h
[8] = Inhibition of gamma-secretase-mediated notch processing by whole cell assay
[9] = Ratio of IC50 for gamma-secretase-mediated notch processing to IC50 for gamma-secretase assessed as reduction in cell amyloid beta40 production

AUC(0-t) at 6 h [1] [ng·h/mL]	IC50 [2] [nM]	IC50 [3] [nM]	SMILES	further results
446	9.5	9	CC(C)(CO)N1CCN(C(=O)OC2([C@H]3COC[C@@H](C4CC4)N3S(=O)(=O)c3ccc(Cl)cc3)CC2)CC1	Activity (Mus musculus [4]): -78%
–	5.5	–	C[C@@H]1CN(C(=O)OC2([C@H]3COC[C@@H](c4cc(F)cc(F)c4)N3S(=O)(=O)c3ccc(Cl)cc3)CC2)CCN1CCO	Activity (Mus musculus [4]): -87%
–	24	–	O=C(O)CC1CCN(C(=O)OC2([C@H]3COC[C@@H](C4CC4)N3S(=O)(=O)c3ccc(Cl)cc3)CC2)CC1	AUC [5]: 2460 ng·h/mL
–	30	–	CC(C)(C(=O)O)C1CCN(C(=O)OC2([C@H]3COC[C@@H](C4CC4)N3S(=O)(=O)c3ccc(Cl)cc3)CC2)CC1	AUC [5]: 703 ng·h/mL
–	–	5	O=C(OC1([C@H]2CCC[C@@H](c3cc(F)cc(F)c3)N2S(=O)(=O)c2ccc(Cl)cc2)CC1)N1CCN(CCO)CC1	–
6	4.6	–	CC(=O)N1C2CCC1CN(C(=O)OC1([C@H]3COC(C)(C)[C@@H](C4CC4)N3S(=O)(=O)c3ccc(Cl)cc3)CC1)C2	–
–	27	–	O=C(OC1([C@H]2COC[C@@H](C3CC3)N2S(=O)(=O)c2ccc(Cl)cc2)CC1)N1CC[C@H](O)C1	–
567	8.9	31	CN(C)CC(=O)N1C2CCC1CN(C(=O)OC1([C@H]3COC[C@@H](C4CC4)N3S(=O)(=O)c3ccc(Cl)cc3)CC1)C2	–
35	14	41	NC(=O)CC1CCN(C(=O)OC2([C@H]3COC[C@@H](C4CC4)N3S(=O)(=O)c3ccc(Cl)cc3)CC2)CC1	–
–	41	167	O=C(OC[C@H]1CCC[C@@H](c2cc(F)cc(F)c2)N1S(=O)(=O)c1ccc(Cl)cc1)N1CCN(CCO)CC1	–
11	20	31	O=C(OC1([C@H]2COC[C@@H](C3CC3)N2S(=O)(=O)c2ccc(Cl)cc2)CC1)N1CC[C@H](OCCO)C1	–
–	37	–	C[C@@H]1CN(C(=O)OC2([C@H]3COC[C@@H](C4CC4)N3S(=O)(=O)c3ccc(Cl)cc3)CC2)CCN1CCO	–
870	49	–	O=C(OC1([C@H]2COC[C@@H](C3CC3)N2S(=O)(=O)c2ccc(Cl)cc2)CC1)N1CC[C@H](NS(=O)(=O)C(F)(F)F)C1	–
2910	2.4	17	CN1CC2CCC(C1)N2C(=O)OC1([C@H]2COC[C@@H](C3CC3)N2S(=O)(=O)c2ccc(Cl)cc2)CC1	–
–	41	–	CS(=O)(=O)N1C2CCC1CN(C(=O)OC1([C@H]3COC[C@@H](C4CC4)N3S(=O)(=O)c3ccc(Cl)cc3)CC1)C2	–
1920	7.9	15	O=C(OC1([C@H]2COC[C@@H](C3CC3)N2S(=O)(=O)c2ccc(Cl)cc2)CC1)N1CC2CCC(C1)N2CCO	Activity (Mus musculus [4]): -93%; ED50 (Mus musculus [6]): 10 mg/kg; ED50 (Mus musculus [7]): 100 mg/kg; IC50 [8]: 194 nM; Ratio IC50 [9]: 13
–	12	–	O=C(OC1([C@H]2COC[C@@H](c3cc(F)cc(F)c3)N2S(=O)(=O)c2ccc(Cl)cc2)CC1)N1CC[C@H](O)C1	Activity (Mus musculus [4]): 21%
–	76	95	O=C(OC[C@H]1COC[C@@H](c2cc(F)cc(F)c2)N1S(=O)(=O)c1ccc(Cl)cc1)N1CCN(CCO)CC1	–
1100	10	25	CCN1C2CCC1CN(C(=O)OC1([C@H]3COC[C@@H](C4CC4)N3S(=O)(=O)c3ccc(Cl)cc3)CC1)C2	–
–	1.4	–	CC(C)(CO)N1CCN(C(=O)OC2([C@H]3COC[C@@H](c4cc(F)cc(F)c4)N3S(=O)(=O)c3ccc(Cl)cc3)CC2)CC1	Activity (Mus musculus [4]): -68%
1370	1.1	–	CC1(C)OC[C@H](C2(OC(=O)N3CC4CCC(C3)N4CCO)CC2)N(S(=O)(=O)c2ccc(Cl)cc2)[C@@H]1C1CC1	–

SMILES	AUC(0-t) at 6 h [1] [ng·h/mL]	IC50 [2] [nM]	IC50 [3] [nM]	further results
O=C(OC1([C@H]2COC[C@@H](C3CC3)N2S(=O)(=O)c2ccc(Cl)cc2)CC1)N1C2CCC1CN(CCO)C2	1280	15	27	–
O=C(OC1([C@H]2COC[C@@H](C3CC3)N2S(=O)(=O)c2ccc(Cl)cc2)CC1)N1CC2CCC(C1)N2	4360	7.1	25	Activity (Mus musculus [4]): -90%
O=C(OC1([C@H]2COC[C@@H](C3CC3)N2S(=O)(=O)c2ccc(Cl)cc2)CC1)N1C2CCC1CNC2	4660	17	72	–
CC(=O)N1C2CCC1CN(C(=O)OC1([C@H]3CO[C@H](C)[C@@H](C4CC4)N3S(=O)(=O)c3ccc(Cl)cc3)CC1)C2	23	4	–	–
C[C@H]1OC[C@H](C2(OC(=O)N3CC4CCC(C3)N4CCO)CC2)N(S(=O)(=O)c2ccc(Cl)cc2)[C@@H]1C1CC1	–	0.9	–	–
C[C@@H]1OC[C@H](C2(OC(=O)N3CC4CCC(C3)N4CCO)CC2)N(S(=O)(=O)c2ccc(Cl)cc2)[C@@H]1C1CC1	–	1.5	–	–
CC(=O)N1C2CCC1CN(C(=O)OC1([C@H]3COC[C@@H](C4CC4)N3S(=O)(=O)c3ccc(Cl)cc3)CC1)C2	871	15	25	–
CC(=O)N1C2CCC1CN(C(=O)OC1([C@H]3CO[C@@H](C)[C@@H](C4CC4)N3S(=O)(=O)c3ccc(Cl)cc3)CC1)C2	178	5.4	–	–
CN1C2CCC1CN(C(=O)OC1([C@H]3COC[C@@H](C4CC4)N3S(=O)(=O)c3ccc(Cl)cc3)CC1)C2	939	4.6	20	Activity (Mus musculus [4]): -88%
